Reference: article PMC10916382, “Repurposing screen identifies novel candidates for broad-spectrum coronavirus antivirals and druggable host targets” (Antimicrobial Agents and Chemotherapy, 2024)
Like-named read-outs stand apart in the source and are kept apart here.

Key:
in vitro [1] = settings: human
in vitro [2] = assay: in vitro
HCoV-229E = assay: microbe, parasite or virus in culture; format: cell-based, Homo sapiens sapiens; settings: Human coronavirus 229E
[3] = Calu-3 cells, immunofluorescence imaging
[4] = Anti-SARS-CoV-2 screening on Calu-3 cells: viability [% of control], Calu-3 cells
[5] = Huh7.5, read-out: IC50 (µM), HCoV 229E
[6] = Huh-7.5/F-Luc cells, maximum tested dose 5 µM

| Structure (SMILES) | viability at 5 µM (in vitro [1]) [%] | Anti-SARS-CoV-2 screening on Calu-3 cells: intracellular SARS-CoV-2 infection measured via immunofluorescence imaging [% of control] (SARS-CoV-2; [3]) | viability (in vitro [2]; [4]) [%] | IC50 (HCoV-229E; [5]) [µM] | CC50 (µM) (Huh-7.5/F-Luc cells; [6]) | Anti-SARS-CoV-2 screening on Calu-3 cells: intracellular SARS-CoV-2 infection measured via immunofluorescence imaging [% of control] (SARS-CoV-2) | viability at 48 h, 5 µM (in vitro [2]) [%] | CC50 (µM) (Huh-7.5/F-Luc cells) | viability (in vitro [2]) [%] | viability (in vitro [2]; Anti-SARS-CoV-2 screening on Calu-3 cells: viability [% of control]) [%] | IC50 (HCoV-229E; Huh7.5, read-out: IC50 (µM), HCoV 229E, HCoV-229E/R-Luc on Huh-7.5/F-Luc cells, dose series, max. dose 5 µM) [µM] |
| --- | --- | --- | --- | --- | --- | --- | --- | --- | --- | --- | --- |
| Cc1ccc([C@@H](CCNCC2CCCCC2)[C@@H]2CCOC(C)(C)C2)cc1F [RFM-013-052-9] | 119 | 121.52 % of control | 102 | 1.8 | greater than maximum tested dose |  |  |  |  |  |  |
| C[C@@H]1CCCN1CCc1cc2cc(-c3ccc(C#N)cc3)ccc2o1 [RFM-000-099-7] | 152 | 114.07 % of control | 98.3 | 1.39 | greater than maximum tested dose |  |  |  |  |  |  |
| CN1CCN(CC/C=C2/c3ccccc3Sc3ccc(S(=O)(=O)N(C)C)cc32)CC1 [RFM-003-384-1] | 148 |  |  | 1.22 |  | 116.45 % of control | 114 | greater than maximum tested dose |  |  |  |
| Oc1ccc2c(c1)OC[C@@H](c1ccccc1)[C@H]2c1ccc(OCCN2CCCC2)cc1 [RFM-011-457-8] | 144 | 113.89 % of control | 101 | 1.5 | greater than maximum tested dose |  |  |  |  |  |  |
| CCN(CC)CCOc1ccc(-c2nc3cc(Cl)ccc3s2)cc1 [RFM-005-834-4] | 91.6 | 104.24 % of control | 88.8 | 1.51 | greater than maximum tested dose |  |  |  |  |  |  |
| CN(C)CCOC(c1ccccc1)c1ccc(Br)cc1 (stereo not drawn) [RFM-010-846-3] | 157 | 102.09 % of control | 92.2 | 2.14 | greater than maximum tested dose |  |  |  |  |  |  |
| Oc1ccc(Nc2ccnc3cc(Cl)ccc23)cc1CN1CCCC1 [RFM-010-841-8] | 165 | 102.22 % of control | 109 | 1.41 | greater than maximum tested dose |  |  |  |  |  |  |
| Cc1cc(OCCN(C)C)c(C(C)C)cc1OC(=O)CC(C)(C)SN=O [RFM-011-454-5] | 118 | 101.17 % of control | 88.9 | 2.37 | greater than maximum tested dose |  |  |  |  |  |  |
| CN(C)CC(O)COc1ccccc1C1CC2CCC1C2 (stereo not drawn) [RFM-012-243-0] | 142 | 114.97 % of control | 95.3 | 1.84 | greater than maximum tested dose |  |  |  |  |  |  |
| CC(CN(C)C)CN1c2ccccc2CCc2ccccc21 (stereo not drawn) [RFM-008-630-6] | 145 | 106.86 % of control |  | 1.47 | greater than maximum tested dose |  | 114 |  |  |  |  |
| COC(=O)C1=C(C)NC(C)=C(C(=O)OCCCN2CCC(c3ccccc3)(c3ccccc3)CC2)[C@@H]1c1cccc([N+](=O)[O-])c1 [RFM-003-515-4] | 136 |  |  | 1.39 |  | 83.07 % of control |  | greater than maximum tested dose | 92.9 |  |  |
| CNCCC(Oc1cccc2ccccc12)c1cccs1 (stereo not drawn) [RFM-000-319-0] | 143 |  |  |  |  | 109.17 % of control |  | greater than maximum tested dose |  | 104 | 1.44 |
